In assay [1] the target is Mitogen-activated protein kinase 10 (Homo sapiens) (UniProt P53779). The conditions noted are these: Compound concentration 1000.0 nM.
Assay [2] has as its target BMP-2-inducible protein kinase (Homo sapiens) (UniProt Q9NSY1). The conditions noted are these: Compound concentration 1000.0 nM.
The target of assay [3] is Serine/threonine-protein kinase 32C (Homo sapiens) (UniProt Q86UX6). The note with it: Compound concentration 1000.0 nM.
Assay [4] has as its target 5'-AMP-activated protein kinase catalytic subunit alpha-2 (Homo sapiens) (UniProt P54646). The conditions noted are these: Compound concentration 1000.0 nM.
The target of assay [5] is Tyrosine-protein kinase Lck (Homo sapiens) (UniProt P06239). The conditions noted are these: Compound concentration 1000.0 nM.
Sequence of Tyrosine-protein kinase Lck (Homo sapiens) (P06239 2-509 limits assumed): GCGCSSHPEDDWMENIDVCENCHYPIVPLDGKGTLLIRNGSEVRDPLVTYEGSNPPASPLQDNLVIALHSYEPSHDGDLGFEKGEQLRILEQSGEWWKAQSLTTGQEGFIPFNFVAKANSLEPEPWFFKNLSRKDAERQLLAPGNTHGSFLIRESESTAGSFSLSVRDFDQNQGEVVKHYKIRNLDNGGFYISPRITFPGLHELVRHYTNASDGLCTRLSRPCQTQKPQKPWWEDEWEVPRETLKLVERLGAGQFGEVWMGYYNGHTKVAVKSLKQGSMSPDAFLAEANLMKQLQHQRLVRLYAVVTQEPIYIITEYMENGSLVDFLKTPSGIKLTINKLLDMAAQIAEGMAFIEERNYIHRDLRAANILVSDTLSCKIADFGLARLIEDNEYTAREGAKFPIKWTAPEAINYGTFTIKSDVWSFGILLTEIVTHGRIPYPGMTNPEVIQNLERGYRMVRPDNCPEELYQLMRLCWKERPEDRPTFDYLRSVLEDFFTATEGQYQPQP
Assay [6] has as its target Serine/threonine-protein kinase OSR1 (Homo sapiens) (UniProt O95747). The conditions noted are these: Compound concentration 1000.0 nM.
Assay [7] addresses Wee1-like protein kinase (Homo sapiens) (UniProt P30291). The note with it: Compound concentration 1000.0 nM.
Assay [8] concerns the target Homeodomain-interacting protein kinase 3 (Homo sapiens) (UniProt Q9H422). The conditions noted are these: Compound concentration 1000.0 nM.
In assay [9] the target is Serine/threonine-protein kinase BRSK2 (Homo sapiens) (UniProt Q8IWQ3). The note with it: Compound concentration 1000.0 nM.
In assay [10] the test system is Tyrosine-protein kinase ABL1 (Homo sapiens), P00519 [Y253F]. The note with it: Compound concentration 1000.0 nM.
The target of assay [11] is RAC-alpha serine/threonine-protein kinase (Homo sapiens) (UniProt P31749). The note with it: Compound concentration 1000.0 nM.
Assay [12] addresses Serine/threonine-protein kinase 35 (Homo sapiens) (UniProt Q8TDR2). The note with it: Compound concentration 1000.0 nM.
The target in assay [13] is Mitogen-activated protein kinase 14 (Homo sapiens) (UniProt Q16539). The conditions noted are these: Compound concentration 1000.0 nM.
Sequence of Mitogen-activated protein kinase 14 (Homo sapiens) (Q16539 whole entry): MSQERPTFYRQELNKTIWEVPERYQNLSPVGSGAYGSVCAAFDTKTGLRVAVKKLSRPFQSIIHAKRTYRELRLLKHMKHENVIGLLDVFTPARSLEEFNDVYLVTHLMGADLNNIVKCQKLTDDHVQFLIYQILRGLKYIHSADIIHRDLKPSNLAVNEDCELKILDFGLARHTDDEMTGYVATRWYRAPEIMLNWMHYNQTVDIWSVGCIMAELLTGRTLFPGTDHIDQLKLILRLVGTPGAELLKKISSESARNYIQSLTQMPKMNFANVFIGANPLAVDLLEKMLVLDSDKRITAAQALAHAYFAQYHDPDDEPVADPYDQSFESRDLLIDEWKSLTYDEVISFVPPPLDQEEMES
For assay [14], the system named is Leucine-rich repeat serine/threonine-protein kinase 2 (Homo sapiens), Q5S007 [G2019S]. The note with it: Compound concentration 1000.0 nM.
The target in assay [15] is Calcium/calmodulin-dependent protein kinase type II subunit alpha (Homo sapiens) (UniProt Q9UQM7). The note with it: Compound concentration 1000.0 nM.
For assay [16], the target named is Phosphatidylinositol 4,5-bisphosphate 3-kinase catalytic subunit delta isoform (Homo sapiens) (UniProt O00329). The note with it: Compound concentration 1000.0 nM.
The target in assay [17] is Cyclin-dependent kinase 8 (Homo sapiens) (UniProt P49336). The note with it: Compound concentration 1000.0 nM.
The target in assay [18] is Activin receptor type-1B (Homo sapiens) (UniProt P36896). The note with it: Compound concentration 1000.0 nM.
For assay [19], the target named is Serine/threonine-protein kinase Nek2 (Homo sapiens) (UniProt P51955). The note with it: Compound concentration 1000.0 nM.
The subject of assay [20] is Receptor-type tyrosine-protein kinase FLT3 (Homo sapiens), P36888 [D835H]. The conditions noted are these: Compound concentration 1000.0 nM.
Assay [21] has as its target D(3) dopamine receptor (Homo sapiens) (UniProt P35462). The note with it: Compound concentration 10.0 uM.
The target in assay [22] is Ribosomal protein S6 kinase alpha-3 (Homo sapiens, UniProt P51812). Put plainly: Rsk2 (h) Millipore kinase activity assay.
Sequence of Ribosomal protein S6 kinase alpha-3 (P51812 whole entry): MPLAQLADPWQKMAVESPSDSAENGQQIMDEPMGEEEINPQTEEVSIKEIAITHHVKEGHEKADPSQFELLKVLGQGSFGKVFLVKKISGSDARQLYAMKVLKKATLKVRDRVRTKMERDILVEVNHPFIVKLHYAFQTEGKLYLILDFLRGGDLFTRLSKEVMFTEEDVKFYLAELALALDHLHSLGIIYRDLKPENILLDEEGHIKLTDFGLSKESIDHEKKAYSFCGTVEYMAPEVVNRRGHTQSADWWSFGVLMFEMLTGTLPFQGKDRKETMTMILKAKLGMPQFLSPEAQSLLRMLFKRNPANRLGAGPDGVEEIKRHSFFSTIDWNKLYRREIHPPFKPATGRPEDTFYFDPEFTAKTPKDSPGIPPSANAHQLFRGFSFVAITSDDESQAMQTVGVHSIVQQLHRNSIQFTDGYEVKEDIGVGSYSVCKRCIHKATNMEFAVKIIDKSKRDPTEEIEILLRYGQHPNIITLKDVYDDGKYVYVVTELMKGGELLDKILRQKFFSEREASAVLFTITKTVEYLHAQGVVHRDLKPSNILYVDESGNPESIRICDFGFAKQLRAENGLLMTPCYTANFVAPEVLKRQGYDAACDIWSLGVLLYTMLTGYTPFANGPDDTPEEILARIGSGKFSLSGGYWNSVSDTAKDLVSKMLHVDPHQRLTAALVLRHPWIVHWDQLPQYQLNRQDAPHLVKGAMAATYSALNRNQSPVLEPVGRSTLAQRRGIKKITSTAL
The target in assay [23] is SRSF protein kinase 1 (Homo sapiens) (UniProt Q96SB4). Put plainly: SRPK1 (h) Millipore kinase activity assay. The conditions noted are these: Compound concentration 1.0 uM.
Assay [24] has as its target Serine/threonine-protein kinase TAO2 (Homo sapiens) (UniProt Q9UL54). Put plainly: TAO2 (h) Millipore kinase activity assay. The conditions noted are these: Compound concentration 1.0 uM.
For assay [25], the target named is Serine/threonine-protein kinase Sgk3 (Homo sapiens) (UniProt Q96BR1). Put plainly: SGK3 (h) Millipore kinase activity assay. The conditions noted are these: Compound concentration 1.0 uM.
Assay [26] addresses Serine/threonine-protein kinase MARK2 (Homo sapiens) (UniProt Q7KZI7). The experiment in a line: PAR-1Balpha (h) Millipore kinase activity assay. The conditions noted are these: Compound concentration 1.0 uM.
The target in assay [27] is 5-hydroxytryptamine receptor 2B (Homo sapiens) (UniProt P41595). The note with it: Compound concentration 10.0 uM.
Assay [28] addresses Tyrosine-protein kinase ZAP-70 (Homo sapiens) (UniProt P43403). Put plainly: ZAP-70 (h) Millipore kinase activity assay. The conditions noted are these: Compound concentration 1.0 uM.
Assay [29] deals with Cannabinoid receptor 1 (Homo sapiens) (UniProt P21554). The note with it: Compound concentration 10.0 uM.
Sequence of Cannabinoid receptor 1 (Homo sapiens) (P21554 whole entry): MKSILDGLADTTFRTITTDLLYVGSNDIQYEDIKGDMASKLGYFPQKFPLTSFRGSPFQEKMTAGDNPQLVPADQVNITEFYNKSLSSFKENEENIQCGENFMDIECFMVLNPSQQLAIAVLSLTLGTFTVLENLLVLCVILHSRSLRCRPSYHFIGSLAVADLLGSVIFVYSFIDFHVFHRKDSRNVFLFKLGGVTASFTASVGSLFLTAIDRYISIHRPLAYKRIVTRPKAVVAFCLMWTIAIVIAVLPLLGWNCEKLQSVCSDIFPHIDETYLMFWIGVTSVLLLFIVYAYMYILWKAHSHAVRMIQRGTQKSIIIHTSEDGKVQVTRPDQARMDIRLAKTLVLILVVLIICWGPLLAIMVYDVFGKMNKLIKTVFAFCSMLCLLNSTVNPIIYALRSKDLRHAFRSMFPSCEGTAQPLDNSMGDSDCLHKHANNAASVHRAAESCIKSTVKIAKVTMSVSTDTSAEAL
Assay [30] addresses Fibroblast growth factor receptor 4 (Homo sapiens) (UniProt P22455). Put plainly: FGFR4 (h) Millipore kinase activity assay. The note with it: Compound concentration 1.0 uM.
Assay [31] has as its target Muscarinic acetylcholine receptor M3 (Homo sapiens) (UniProt P20309). The conditions noted are these: Compound concentration 10.0 uM.
For assay [32], the target named is Cysteinyl leukotriene receptor 1 (Homo sapiens) (UniProt Q9Y271). The experiment in a line: Inhibition of Leukotriene, Cysteinyl CysLT1 at 10 µM in the Eurofins-Panlabs radioligand binding assay (Eurofins_assay_250460). On the set-up: ligand concentration 0.3 nM, non-specific ligand with concentration 0.3 µM Leukotriene D4, incubation time 30 min, incubation temperature 25 °C. The note with it: Compound concentration 10.0 uM.

Assay [33] addresses Testis-specific serine/threonine-protein kinase 1 (Homo sapiens) (UniProt Q9BXA7). The experiment in a line: TSSK1 (h) Millipore kinase activity assay. The note with it: Compound concentration 1.0 uM.
The target in assay [34] is T1, Muscarinic acetylcholine receptor M2 (Homo sapiens) (UniProt P08172).
T1 sequence (whole entry): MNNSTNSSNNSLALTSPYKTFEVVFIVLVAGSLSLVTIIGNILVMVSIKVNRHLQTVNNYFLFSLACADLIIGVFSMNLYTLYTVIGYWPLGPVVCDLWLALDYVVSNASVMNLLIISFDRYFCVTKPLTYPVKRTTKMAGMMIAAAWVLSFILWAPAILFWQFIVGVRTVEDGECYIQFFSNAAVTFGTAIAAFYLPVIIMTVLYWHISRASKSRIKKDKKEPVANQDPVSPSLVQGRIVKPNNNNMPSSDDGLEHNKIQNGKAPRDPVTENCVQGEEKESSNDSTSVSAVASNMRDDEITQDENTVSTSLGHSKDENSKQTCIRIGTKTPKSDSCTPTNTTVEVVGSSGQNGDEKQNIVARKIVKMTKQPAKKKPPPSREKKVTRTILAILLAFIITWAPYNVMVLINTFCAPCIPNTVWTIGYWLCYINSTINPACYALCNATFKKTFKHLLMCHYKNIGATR
The note with it: Compound concentration 10.0 uM.

Assay [35] has as its target RAC-beta serine/threonine-protein kinase (Homo sapiens) (UniProt P31751). The experiment in a line: PKBbeta (h) Millipore kinase activity assay. The conditions noted are these: Compound concentration 1.0 uM.
The target of assay [36] is High affinity nerve growth factor receptor (Homo sapiens) (UniProt P04629). The experiment in a line: TrkA (h) Millipore kinase activity assay. The note with it: Compound concentration 1.0 uM.
Assay [37] deals with Vascular endothelial growth factor receptor 1 (Homo sapiens) (UniProt P17948). The experiment in a line: Flt1 (h) Millipore kinase activity assay. The conditions noted are these: Compound concentration 1.0 uM.
Assay [38] deals with Tyrosine-protein kinase HCK (Homo sapiens) (UniProt P08631). Put plainly: Hck (h) Millipore kinase activity assay. The note with it: Compound concentration 1.0 uM.
The target of assay [39] is Ephrin type-A receptor 7 (Homo sapiens) (UniProt Q15375). Put plainly: EphA7 (h) Millipore kinase activity assay. The note with it: Compound concentration 1.0 uM.

Sequence of Serine/threonine-protein kinase TAO2 (Homo sapiens) (Q9UL54 whole entry): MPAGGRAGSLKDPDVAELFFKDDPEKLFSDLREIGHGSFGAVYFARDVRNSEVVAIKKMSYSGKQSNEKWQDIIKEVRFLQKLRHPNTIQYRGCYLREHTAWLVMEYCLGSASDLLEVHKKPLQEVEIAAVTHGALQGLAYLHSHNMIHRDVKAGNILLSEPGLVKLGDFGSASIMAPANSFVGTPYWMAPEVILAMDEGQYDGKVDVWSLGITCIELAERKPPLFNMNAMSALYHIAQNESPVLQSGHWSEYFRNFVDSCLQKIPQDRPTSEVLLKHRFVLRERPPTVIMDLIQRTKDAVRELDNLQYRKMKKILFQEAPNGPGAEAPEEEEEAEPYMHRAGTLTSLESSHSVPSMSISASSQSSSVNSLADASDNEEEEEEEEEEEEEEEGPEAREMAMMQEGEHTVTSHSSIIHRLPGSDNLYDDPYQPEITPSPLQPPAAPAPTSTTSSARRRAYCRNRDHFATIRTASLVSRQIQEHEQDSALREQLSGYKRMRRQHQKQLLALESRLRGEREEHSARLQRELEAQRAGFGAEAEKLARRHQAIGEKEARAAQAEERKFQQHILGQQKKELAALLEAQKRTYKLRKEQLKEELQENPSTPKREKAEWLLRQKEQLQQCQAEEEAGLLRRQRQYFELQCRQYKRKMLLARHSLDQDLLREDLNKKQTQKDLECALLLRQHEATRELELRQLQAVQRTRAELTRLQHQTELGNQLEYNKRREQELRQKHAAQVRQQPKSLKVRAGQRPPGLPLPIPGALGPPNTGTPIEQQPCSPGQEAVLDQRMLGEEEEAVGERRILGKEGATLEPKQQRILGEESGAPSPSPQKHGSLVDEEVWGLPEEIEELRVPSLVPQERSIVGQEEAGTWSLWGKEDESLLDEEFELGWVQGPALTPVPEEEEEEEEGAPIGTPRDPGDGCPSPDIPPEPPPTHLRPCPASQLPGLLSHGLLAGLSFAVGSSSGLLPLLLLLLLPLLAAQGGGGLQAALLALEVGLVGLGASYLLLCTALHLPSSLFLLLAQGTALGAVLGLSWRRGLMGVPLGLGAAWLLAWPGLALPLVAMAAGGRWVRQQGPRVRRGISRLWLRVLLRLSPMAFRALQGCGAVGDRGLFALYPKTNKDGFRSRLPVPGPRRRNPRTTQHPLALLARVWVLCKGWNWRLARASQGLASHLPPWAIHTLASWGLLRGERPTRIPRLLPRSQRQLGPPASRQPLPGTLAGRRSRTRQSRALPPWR
Sequence of Fibroblast growth factor receptor 4 (Homo sapiens) (P22455 22-802 limits assumed): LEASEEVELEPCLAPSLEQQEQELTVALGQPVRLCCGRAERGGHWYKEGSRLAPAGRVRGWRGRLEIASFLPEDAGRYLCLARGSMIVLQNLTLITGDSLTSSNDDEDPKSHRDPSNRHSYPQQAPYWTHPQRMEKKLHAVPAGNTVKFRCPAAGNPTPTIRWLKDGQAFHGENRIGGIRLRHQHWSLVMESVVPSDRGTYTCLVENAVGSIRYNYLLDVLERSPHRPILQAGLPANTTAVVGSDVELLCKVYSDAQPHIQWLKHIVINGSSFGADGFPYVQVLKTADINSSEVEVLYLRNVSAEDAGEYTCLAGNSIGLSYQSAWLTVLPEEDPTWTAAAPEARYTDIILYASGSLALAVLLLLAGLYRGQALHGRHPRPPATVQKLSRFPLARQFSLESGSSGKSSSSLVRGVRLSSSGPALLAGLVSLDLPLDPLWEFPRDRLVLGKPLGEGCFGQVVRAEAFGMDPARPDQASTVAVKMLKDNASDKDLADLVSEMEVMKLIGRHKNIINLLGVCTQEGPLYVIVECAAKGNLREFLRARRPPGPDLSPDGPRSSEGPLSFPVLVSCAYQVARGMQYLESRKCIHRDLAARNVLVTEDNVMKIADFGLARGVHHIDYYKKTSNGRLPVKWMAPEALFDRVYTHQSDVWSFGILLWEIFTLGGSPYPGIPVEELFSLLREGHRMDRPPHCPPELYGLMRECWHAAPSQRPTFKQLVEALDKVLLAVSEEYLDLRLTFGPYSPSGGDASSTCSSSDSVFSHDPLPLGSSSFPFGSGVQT
Sequence of Serine/threonine-protein kinase 32C (Homo sapiens) (Q86UX6 whole entry): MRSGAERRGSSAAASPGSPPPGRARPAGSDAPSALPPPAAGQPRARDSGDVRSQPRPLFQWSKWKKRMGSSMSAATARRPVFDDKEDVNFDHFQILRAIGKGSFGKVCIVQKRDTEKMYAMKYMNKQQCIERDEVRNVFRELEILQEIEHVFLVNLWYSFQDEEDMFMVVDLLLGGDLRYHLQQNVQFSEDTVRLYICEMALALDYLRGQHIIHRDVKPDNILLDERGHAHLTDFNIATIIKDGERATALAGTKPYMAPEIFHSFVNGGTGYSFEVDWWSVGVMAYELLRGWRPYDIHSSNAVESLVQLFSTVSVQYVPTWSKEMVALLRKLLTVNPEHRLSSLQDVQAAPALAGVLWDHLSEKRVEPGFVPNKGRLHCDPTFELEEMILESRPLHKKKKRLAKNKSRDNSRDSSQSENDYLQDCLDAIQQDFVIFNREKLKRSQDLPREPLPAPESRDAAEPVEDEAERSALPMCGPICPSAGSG
Sequence of Testis-specific serine/threonine-protein kinase 1 (Homo sapiens) (Q9BXA7 whole entry): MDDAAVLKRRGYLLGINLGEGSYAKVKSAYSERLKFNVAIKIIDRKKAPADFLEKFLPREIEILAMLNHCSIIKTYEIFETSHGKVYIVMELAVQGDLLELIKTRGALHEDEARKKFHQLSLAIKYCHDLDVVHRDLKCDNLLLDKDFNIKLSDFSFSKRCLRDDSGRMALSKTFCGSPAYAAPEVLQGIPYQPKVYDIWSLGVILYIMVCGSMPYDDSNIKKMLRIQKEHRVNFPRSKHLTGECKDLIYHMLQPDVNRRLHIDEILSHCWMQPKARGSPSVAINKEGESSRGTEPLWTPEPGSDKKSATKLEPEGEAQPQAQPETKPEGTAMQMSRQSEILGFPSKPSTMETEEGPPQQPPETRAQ

For the compound `CC1=C(C#N)[C@@H](c2ccc3[nH]nc(C)c3c2)C(C#N)=C(c2ccc(Cl)cc2)N1` [BAY-827], the residual activity is 68.8% in assay [1]; 100% in [2]; 91.2% in assay [3]; 95.3% in assay [4]; 100% in assay [5]; 100% in assay [6]. The residual activity in assay [7] was 100%; in [8], 89.5%; in assay [9] it was 100%; in assay [10], 100%; in [11], 100%; in [12] it was 100%. The residual activity in [13] is 100%; in assay [14], 79.5%; in assay [15] it was 100%; in assay [16], 100%; in assay [17], 93.2%; in [18] it was 100%. The residual activity in assay [19] and in [20] was 100% in each case.
`CC1=C(C#N)C(c2ccc3[nH]nc(C)c3c2)C(C#N)=C(C)N1` [BAY-474]: the inhibition (as a rule, the drop in the measured response relative to a control, in per cent) in assay [21] was 12%; in assay [22] (Compound concentration 1.0 uM) it was 46%; in [23], 11%; in assay [24] it was -2%; in assay [25], -2%; in assay [26], 26%. Further, the inhibition in assay [27] is 4%; in [28] it was 12%; in assay [29] it was 17%; in [30], 18%; in [31] it was 2%; in [32] it was 8%. Besides, the inhibition in [33] was 27%; in assay [34] it was 0%; in assay [35], -5%; in assay [36] it was 27%; in [37], 69%; in assay [38], 16%. In [39], the inhibition is -2%. The half-inhibitory concentration (IC50) – broadly, the concentration needed to halve the response being measured – in [22] was 900 nM.

Source of the values: ChEMBL document CHEMBL4507263, “Data for DCP probe BAY-474” (2021).
